We go through four compounds from patent publication US20240108737A1, “ANTI-INFECTIVE BICYCLIC PEPTIDE LIGANDS” (priority 2021, published 2024).

*1 amine or outer side, *2 acyl side, *3 side chain or, on linkers, in order; H or OH if unused. Where a SMILES comes first, the peptide text is derived from it. Bridges are numbered along the chain shown (N, C = ends). Roman numbers before positions name the chains, in order. [ ]: non-standard residue; d: D form. X1 = O=C(CCOCCOCCOCCOCCOCCOCCOCCOCCOCCOCCOCCOCCOCCOCCOCCOCCOCCOCCOCCOCCOCCOCCOCCOCCn1cc(CCC(=O)[*:2])nn1)[*:1]; X3 = O=C(CCc1cn(CCOCCOCCOCCOCCOCCOCCOCCOCCOCCOCCOCCOCCOCCOCCOCCOCCOCCOCCOCCOCCOCCOCCOCCOCCC(=O)[*:2])nn1)[*:1]; TATB = O=C(C[*:1])N1CN(C(=O)C[*:2])CN(C(=O)C[*:3])C1; X2 = C(c1nc(C[*:2])nc(C[*:3])n1)[*:1]; hArg = N=C(N)NCCCC[C@H](N)C(=O)O; tBuAla = CC(C)(C)C[C@H](N)C(=O)O; Agb = N=C(N)NCC[C@H](N)C(=O)O

For assay [1], the system named is SARS-CoV-2 pseudotyped HIV-1 virions. The note with it: 72 h.
In assay [2] the test system is SARS-CoV-2. As to conditions: 3 h.
Assay [3] deals with SARS-CoV-2. The note with it: hamster, in vivo.
The test system of assay [4] is SARS-CoV-2 pseudotyped HIV-1 virions, P.1 (Gamma).
Assay [5] concerns SARS-CoV-2 pseudotyped HIV-1 virions, B.1.427 (California).
Assay [6] has as its system SARS-CoV-2 pseudotyped HIV-1 virions, B.1.617.2 (Delta).
Assay [7] concerns SARS-CoV-2 pseudotyped HIV-1 virions, B.1.1.7 (Alpha).
The test system of assay [8] is SARS-CoV-2 pseudotyped HIV-1 virions, B.1.351 (Beta).

The IC50 is the concentration at which inhibition is half-maximal. A lower IC50 goes with higher potency.

The compound `CC(=O)N[C@@H](C)C(=O)N[C@H]1CSCC(=O)N2CN3CN(C2)C(=O)CSC[C@H](NC(=O)[C@H](C(C)C)NC(=O)[C@@H]2CCCN2C(=O)[C@H](CC(N)=O)NC(=O)[C@H](CC(=O)O)NC(=O)[C@@H]2CCCN2C(=O)[C@H](CO)NC(=O)[C@H](C)NC1=O)C(=O)N[C@@H](CCCNC(=N)N)C(=O)N[C@@H](Cc1ccccc1)C(=O)N[C@@H](Cc1ccc(O)cc1)C(=O)N[C@H](C(=O)N[C@@H](C)C(=O)N[C@@H](CCCCNC(=O)CCc1cn(CCOCCOCCOCCOCCOCCOCCOCCOCCOCCOCCOCCOCCOCCOCCOCCOCCOCCOCCOCCOCCOCCOCCOCCOCCC(=O)NCCCC[C@H](NC(=O)[C@@H]2CSCc4nc5nc(n4)CSC[C@H](NC(C)=O)C(=O)N4CCC[C@H]4C(=O)N[C@@H](Cc4ccc(O)cc4)C(=O)N[C@@H](C(C)C)C(=O)N[C@@H](C)C(=O)NCC(=O)N[C@@H](CCNC(=N)N)C(=O)N[C@H](C)C(=O)N[C@@H]([C@@H](C)O)C(=O)N[C@@H](CSC5)C(=O)N[C@@H](CC(C)C)C(=O)N[C@@H](CC(C)(C)C)C(=O)N2)C(N)=O)nn1)C(N)=O)CSCC3=O` [BCY17191] (I: Ac-ACASPDNPVCRFYCAK-NH2 / II: Ac-CPYVAG[Agb][dA]TCL[tBuAla]CK-NH2; linker I:2-I:10-I:14 via TATB; linker I:16-II:14 via X3; linker II:1-II:10-II:13 via X2) came in with an IC50 in assay [1] of 0.0106 µM.
Same read-out and setting: in the case of `CC(=O)N[C@H]1CSCc2nc3nc(n2)CSC[C@H](NC(=O)[C@H]([C@@H](C)O)NC(=O)[C@@H](C)NC(=O)[C@H](CCNC(=N)N)NC(=O)CNC(=O)[C@H](C)NC(=O)[C@H](C(C)C)NC(=O)[C@H](Cc2ccc(O)cc2)NC(=O)[C@@H]2CCCN2C1=O)C(=O)N[C@@H](CC(C)C)C(=O)N[C@@H](CC(C)(C)C)C(=O)N[C@H](C(=O)N[C@@H](CCCCNC(=O)CCOCCOCCOCCOCCOCCOCCOCCOCCOCCOCCOCCOCCOCCOCCOCCOCCOCCOCCOCCOCCOCCOCCOCCOCCn1cc(CCC(=O)NCCCC[C@H](NC(=O)[C@@H]2CSCc4nc5nc(n4)CSC[C@H](NC(C)=O)C(=O)N4CCC[C@H]4C(=O)N[C@@H](Cc4ccc(O)cc4)C(=O)N[C@@H](C(C)C)C(=O)N[C@@H](C)C(=O)NCC(=O)N[C@@H](CCNC(=N)N)C(=O)N[C@H](C)C(=O)N[C@@H]([C@@H](C)O)C(=O)N[C@@H](CSC5)C(=O)N[C@@H](CC(C)C)C(=O)N[C@@H](CC(C)(C)C)C(=O)N2)C(N)=O)nn1)C(N)=O)CSC3` [BCY17196] (I: Ac-CPYVAG[Agb][dA]TCL[tBuAla]CK-NH2 / II: Ac-CPYVAG[Agb][dA]TCL[tBuAla]CK-NH2; linker I:1-I:10-I:13, II:1-II:10-II:13 via X2; linker I:14-II:14 via X1) it was 15.3 µM.
Take `CC[C@H](C)[C@@H]1NC(=O)[C@H](CCSC)NC(=O)[C@@H]2CSCC(=O)N3CN(CN(C3)C(=O)CSC[C@@H](C(=O)N[C@@H](CCCCNC(=O)CCOCCOCCOCCOCCOCCOCCOCCOCCOCCOCCOCCOCCOCCOCCOCCOCCOCCOCCOCCOCCOCCOCCOCCOCCn3cc(CCC(=O)NCCCC[C@H](NC(=O)[C@@H]4CSCc5nc6nc(n5)CSC[C@H](NC(C)=O)C(=O)N5CCC[C@H]5C(=O)N[C@@H](Cc5ccc(O)cc5)C(=O)N[C@@H](C(C)C)C(=O)N[C@@H](C)C(=O)NCC(=O)N[C@@H](CCNC(=N)N)C(=O)N[C@H](C)C(=O)N[C@@H]([C@@H](C)O)C(=O)N[C@@H](CSC6)C(=O)N[C@@H](CC(C)C)C(=O)N[C@@H](CC(C)(C)C)C(=O)N4)C(N)=O)nn3)C(N)=O)NC(=O)[C@H](C)NC1=O)C(=O)CSC[C@H](NC(C)=O)C(=O)N[C@@H]([C@@H](C)CC)C(=O)N1CCC[C@H]1C(=O)N[C@@H](CC(C)C)C(=O)N[C@@H](CC(=O)O)C(=O)N[C@@H](Cc1c[nH]c3ccccc13)C(=O)N[C@@H]([C@@H](C)O)C(=O)N2` [BCY18656]: in the assay with SARS-CoV-2 [2], the IC50 stood at 0.000314 µM. Moreover, the “viral load of SARS-CoV-2” value with SARS-CoV-2 [3] was “reduces the viral load”.
For `CC(=O)N[C@H]1CSCC(=O)N2CN3CN(C2)C(=O)CSC[C@H](NC(=O)[C@H](C(C)C)NC(=O)[C@@H]2CCCN2C(=O)[C@H](CC(N)=O)NC(=O)[C@H](CC(=O)O)NC(=O)[C@@H]2CCCN2C(=O)[C@H](CC(N)=O)NC(=O)[C@H](C)NC1=O)C(=O)N[C@@H](CCCNC(=N)N)C(=O)N[C@@H](Cc1ccccc1)C(=O)N[C@@H](Cc1ccc(O)cc1)C(=O)N[C@H](C(=O)N[C@@H](CCCCNC(=O)CCOCCOCCOCCOCCOCCOCCOCCOCCOCCOCCOCCOCCOCCOCCOCCOCCOCCOCCOCCOCCOCCOCCOCCOCCn1cc(CCC(=O)NCCCC[C@H](NC(=O)[C@@H]2CSCc4nc5nc(n4)CSC[C@H](NC(C)=O)C(=O)N4CCC[C@H]4C(=O)N[C@@H](Cc4ccc(O)cc4)C(=O)N[C@@H](C(C)C)C(=O)N[C@@H](C)C(=O)NCC(=O)N[C@@H](CCCCNC(=N)N)C(=O)N[C@H](C)C(=O)N[C@@H]([C@@H](C)O)C(=O)N[C@@H](CSC5)C(=O)N[C@@H](CC(C)C)C(=O)N[C@@H](CC(C)(C)C)C(=O)N2)C(N)=O)nn1)C(N)=O)CSCC3=O` [BCY18786] (I: Ac-CANPDNPVCRFYCK-NH2 / II: Ac-CPYVAG[hArg][dA]TCL[tBuAla]CK-NH2; linker I:1-I:9-I:13 via TATB; linker I:14-II:14 via X1; linker II:1-II:10-II:13 via X2), the half-maximal inhibitory concentration (IC50) worked out at 0.14 µM in assay [4]; 0.246 µM with SARS-CoV-2 [2]; 0.093 µM in assay [5]; 0.437 µM in assay [6]; 0.006 µM in assay [7]; 0.272 µM in assay [8]. In assay [1], the IC50 is 0.0002 µM.
